What was measured:
[1] = liquid containing reactive components
[2] = tested on: Poliovirus type 1 (Sabin)
[3] = tested on: Influenza A (H3N2)
[4] = tested on: Herpes simplex virus
[5] = tested on: eight bacterial strains representing four bacterial genera (Staphylococcus, Pseudomonas, Klebsiella, Enterococcus)
[6] = tested on: Hepatitis C; assay: trial on a Hepatitis C sufferer, ALT count as infection marker; format: in vivo, human; details: for reduction of ALT count: over 16 week trial period, same trialist, interferon 9 million IU weekly

C=C [ethene]
reduction of ethene in solution by reaction with other components [1]: 50%
sterilizing effect in vitro [2]: not to be sterilized
sterilizing effect in vitro [3]: not to be sterilized
sterilizing effect in vitro [4]: not to be sterilized
sterilizing effect in vitro [5]: without apparent sterilizing success
anti-Hepatitis C efficacy better than the interferon therapy ([6]; ALT reduction over 16 weeks): 337%
depression (reported by trialist) ([6]; during therapy): significant lifting
ALT count ([6]; end of week 4 (from 242), daily 230 millilitres ethene gas in 745 millilitres purified water): 218 u/l
ALT count ([6]; end of week 6): 303 u/l
ALT count ([6]; end of week 14): 93 u/l
infection symptoms ([6]; first 18 days therapy): amelioration of infection symptoms
reduction of ALT count [6]: 153 u/l
ALT count ([6]; week 16): 89 u/l

interferon [reference compound]
reduction of ALT count [6]: 35 u/l

Source: patent publication US6384086B1, “Ethene containing solutions and use thereof in methods of therapy or prophylaxis” (priority 1996, dated 2002)
